# Laboratory results published in article PMC9919861, “Homoleptic Complexes of Heterocyclic Curcuminoids with Mg(II) and Cu(II): First Conformationally Heteroleptic Case, Crystal Structures, and Biological Properties” (Molecules, 2023).
# Like-named read-outs stand apart in the source and are kept apart here.
# Key:
# [1] = system: HCT-15 (human colon adenocarcinoma); experiment: Cytotoxicity, sulforhodamine B (SRB) microculture assay; format: cell-based; conditions: for inhibition at 25 µM: Homo sapiens, read-out: % of Inhibition (cytotoxic screening)
# Experimental: (§1) The cytotoxicity of all compounds was tested against six cancer cell lines: U251 (human glioblastoma cell line), PC-3 (human prostate adenocarcinoma), K562 (human chronic myelogenous leukemia), HCT-15 (human colon adenocarcinoma), MCF-7 (human mammary adenocarcinoma), and SKLU-1 (human lung adenocarcinoma). Cell lines were supplied by the U.S. National Cancer Institute (NCI). The cell lines were cultured in an RPMI-1640 medium supplemented with 10% fetal bovine serum, […] L-glutamine, 10,000 units/mL penicillin G sodium, 10,000 µg/mL streptomycin sulfate, 25 µg/mL amphotericin B (Invitrogen/Gibco™, Thermo Fisher Scientific, Waltham, MA, USA), and 1% non-essential amino acids (Gibco). They were maintained at 37 °C in a humidified atmosphere with 5% CO2. […] The human tumor cytotoxicity was determined using the protein-binding dye sulforhodamine B (SRB) in a microculture assay to measure cell growth, as described in the protocols established by the NCI [39, 40, 41].
# [2] = system: K562 (human chronic myelogenous leukemia); experiment: as above; format: cell-based; conditions: for inhibition at 25 µM: Homo sapiens, read-out: % of Inhibition (cytotoxic screening)
# Experimental: as §1
# [3] = system: MCF-7 (human mammary adenocarcinoma); experiment: as above; format: cell-based; conditions: for inhibition at 25 µM: Homo sapiens, MCF7, 25 μM, read-out: % of Inhibition (cytotoxic screening)
# Experimental: as §1
# [4] = system: PC-3 (human prostate adenocarcinoma); experiment: as above; format: cell-based; conditions: for inhibition at 25 µM: read-out: % of Inhibition (cytotoxic screening)
# Experimental: as §1
# [5] = system: SKLU-1 (human lung adenocarcinoma); experiment: as above; format: cell-based; conditions: for inhibition at 25 µM: SK-LU-1, 25 μM, read-out: % of Inhibition (cytotoxic screening)
# Experimental: as §1
# [6] = system: U251 (human glioblastoma cell line); experiment: as above; format: cell-based; conditions: for inhibition at 25 µM: U-251, 25 μM, read-out: % of Inhibition (cytotoxic screening)
# Experimental: as §1
# [7] = Cytotoxicity towards healthy cell line; format: cell-based, monkey; conditions: monkey, COS-7 kidney cells; COS7; 25 μM; read-out: % of Inhibition (cytotoxic screening)
# [8] = system: lipid peroxidation in rat brain homogenate; experiment: Inhibition of lipid peroxidation (TBARS) in rat brain homogenate, FeSO4-induced; format: biochemical; conditions: for Inhibition (%) of lipid peroxidation / TBARS / IC50: mean ± SEM, n = 3; for IC50: rat brain homogenate, TBARS
# Experimental: Adult male Wistar rats (200–250 g) were provided by the Instituto de Fisiología Celular, Universidad Nacional Autónoma de México (UNAM). The procedures and care of animals were conducted in conformity with the Mexican Official Norm for Animal Care and Handling NOM-062-ZOO-1999. They were maintained at 23 ± 2 °C on a 12/12 h light-dark cycle with ad libitum access to food and water.
# Animal sacrifice was carried out avoiding unnecessary pain. The rats were sacrificed with CO2. The cerebral tissue (whole brain) was rapidly dissected and homogenized in phosphate-buffered saline (PBS) solution (0.2 g of KCl, 0.2 g of KH2PO4, 8 g of NaCl, and 2.16 g of NaHPO4.7H2O/L, pH adjusted to 7.4) as described elsewhere to produce a 1/10 (w/v) homogenate. The homogenate was centrifuged at 800 rcf (relative centrifugal field) for 10 min. The supernatant protein content was measured using Folin and Ciocalteu’s phenol reagent and adjusted with PBS at 2.666 mg of protein/mL.
# As an index of lipid peroxidation, TBARS levels were measured using rat brain homogenates according to the method described by Ng and co-workers, with some modifications. A supernatant (375 µL) was added with 50 µL of 20 µM EDTA and 25 µL of each sample concentration dissolved in DMSO (25 µL of DMSO for the control group) and incubated at 37 °C for 30 min. The lipid peroxidation was started adding 50 µL of freshly prepared 100 µM FeSO4 solution (final concentration 10 µM) and incubated at 37 °C for 1h. The TBARS measurements were obtained as described by Ohkawa and co-workers, with some modifications. To each tube 500 µL of TBA reagent (0.5% 2-thiobarbituric acid in 0.05 N NaOH and 30% trichloroacetic acid, in 1:1 ratio) was added and the final suspension was cooled on ice for 10 min, centrifuged at 13,400 rcf for 5 min and heated at 80 °C in a water bath for 30 min. After cooling at room temperature, the absorbance of 200 µL of supernatant was measured at λ = 540 nm in a Microplate Reader Synergy/HT BIOTEK Instrument, Inc., Winooski, VT, USA. The concentration of TBARS was calculated by interpolation on a standard curve of tetra-methoxypropane (TMP) as a precursor of MDA [38]. Results are expressed as n moles of TBARS per mg of protein. The inhibition ratio (IR [%]) was calculated using the formula IR = (C − E) × 100/C, where C is the control absorbance and E is the sample absorbance. Butylated hydroxytoluene (BHT) and α tocopherol were used as positive standards. All data are presented as mean ± standard error (SEM). The data were analyzed by one-way analysis of variance (ANOVA) followed by Dunnett’s test for comparison against a control. Values of p ≤ 0.05 (*) and p ≤ 0.01 (**) were considered statistically significant.
# [9] = system: healthy monkey kidney cell line (COS-7); experiment: Cytotoxicity towards healthy cell line; format: cell-based; conditions: COS7
# [10] = concentration 1 (unit not given)
# [11] = concentration 10 (unit not given)
# [12] = concentration 100 (unit not given)
Structure (SMILES),inhibition at 25 µM ([1]; 25 μM) [%],inhibition at 25 µM ([2]; 25 μM) [%],inhibition at 25 µM [3] [%],"inhibition at 25 µM ([4]; Homo sapiens, 25 μM) [%]",inhibition at 25 µM ([5]; Homo sapiens) [%],inhibition at 25 µM ([6]; Homo sapiens) [%],inhibition at 25 µM [7] [%],Inhibition (%) of lipid peroxidation ([8]; 17.78 μM) [%],TBARS ([8]; 17.78 μM) [nmol/mg prot.],Inhibition (%) of lipid peroxidation ([8]; 31.62 μM) [%],TBARS ([8]; 31.62 μM) [nmol/mg prot.],"% of Inhibition (lipoperoxidation screening) [8, 10] [%]","% of Inhibition (lipoperoxidation screening) [8, 11] [%]","% of Inhibition (lipoperoxidation screening) [8, 12] [%]",% of Inhibition (cytotoxic screening) ([2]; 25 μM) [%],% of Inhibition (cytotoxic screening) ([3]; 25 μM) [%],% of Inhibition (cytotoxic screening) ([4]; 25 μM) [%],% of Inhibition (cytotoxic screening) ([5]; 25 μM) [%],% of Inhibition (cytotoxic screening) ([6]; 25 μM) [%],% of Inhibition (cytotoxic screening) ([9]; 25 μM) [%],also measured
"COc1cc(/C=C/C(=O)CC(=O)/C=C/c2ccc(O)c(OC)c2)ccc1O [Curc, Curcumin]",80,80.1,82.4,94.4,94.5,67.1,71.6,,,,,,,,,,,,,,
"O=C(/C=C(O)/C=C/c1ccco1)/C=C/c1ccco1 [FuranCurc, Furancurcumin]",0,6.4,0,10.8,0,0,46.2,13.14 ± 5.84,8.634 ± 0.462,48.97 ± 13.11,5.091 ± 1.356,−6.24,1.59,93.46,,,,,,,"Inhibition (%) of lipid peroxidation ([8]; 13.34 μM): 5.6 ± 5.31%; TBARS ([8]; 13.34 μM): 9.385 ± 0.416 nmol/mg prot.; Inhibition (%) of lipid peroxidation ([8]; 23.71 μM): 25.93 ± 9.98%; TBARS ([8]; 23.71 μM): 7.356 ± 0.928 nmol/mg prot.; Inhibition (%) of lipid peroxidation ([8]; 42.17 μM): 64.24 ± 10.44%; TBARS ([8]; 42.17 μM): 3.590±1.114 nmol/mg prot.; Inhibition (%) of lipid peroxidation ([8]; 56.23 μM): 81.06 ± 1.43%; TBARS ([8]; 56.23 μM): 1.891±0.178 nmol/mg prot.; Inhibition (%) of lipid peroxidation ([8]; 74.13 μM): 88.25 ± 1.57%; TBARS ([8]; 74.13 μM): 1.167±0.148 nmol/mg prot.; IC50 [8]: 33.9 ± 4.65 µM; IC50 ([4]; Homo sapiens): 35.9 ± 3.9 µM; IC50 ([5]; Homo sapiens, SK-LU-1): 15.5 ± 2 µM; IC50 ([6]; Homo sapiens, U-251): 11.7 ± 2.9 µM"
O=C(C=C([O-])/C=C/c1ccco1)/C=C/c1ccco1.O=C(C=C([O-])/C=C/c1ccco1)/C=C/c1ccco1.[Cu+2] [FuranCurc-Cu],,,,,,,,,,,,0.83,27.46,88.94,90.1,92.8,100,95.0,100,100,% of Inhibition (cytotoxic screening) ([1]; 25 μM): 72.4%; IC50 [4]: 3 ± 0.1 µM; IC50 [5]: 6.5 ± 0.2 µM; IC50 [6]: 4 ± 0.3 µM
Cn1cccc1/C=C/C(=O)C=C([O-])/C=C/c1cccn1C.Cn1cccc1/C=C/C(=O)C=C([O-])/C=C/c1cccn1C.[Cu+2] [N-methyl-pyrCurc-Cu],,,,,,,,,,,,−7.20,38.48,71.20,74.67,100,64.99,100,71.62,100,IC50 [1]: 12.9 ± 2.1 µM; % of Inhibition (cytotoxic screening) ([1]; 25 μM): 100%; IC50 [2]: 5.9 ± 1.5 µM; IC50 [3]: 10.8 ± 1.7 µM; IC50 [5]: 10.3 ± 1 µM; IC50 [6]: 10.6 ± 1 µM
Cn1cccc1/C=C/C(=O)C=C([O-])/C=C/c1cccn1C.Cn1cccc1/C=C/C(=O)C=C([O-])/C=C/c1cccn1C.[Mg+2] [N-methyl-pyrCurc-Mg],,,,,,,,,,,,−4.22,12.24,69.70,,,,,,,% of Inhibition (cytotoxic screening) ([1]; 12.5 μM): 15.8%; % of Inhibition (cytotoxic screening) ([2]; 12.5 μM): 28.8%; % of Inhibition (cytotoxic screening) ([3]; 12.5 μM): 35.7%; % of Inhibition (cytotoxic screening) ([4]; 12.5 μM): 1.4%; % of Inhibition (cytotoxic screening) ([5]; 12.5 μM): 18.1%; % of Inhibition (cytotoxic screening) ([6]; 12.5 μM): 19.5%; % of Inhibition (cytotoxic screening) ([9]; 12.5 μM): 23.4%
O=C(C=C([O-])/C=C/c1cccs1)/C=C/c1cccs1.O=C(C=C([O-])/C=C/c1cccs1)/C=C/c1cccs1.[Cu+2] [ThiopheneCurc-Cu],,,,,,,,57.25 ± 1.19,2.280 ± 0.052,55.9 ± 1.51,2.351 ± 0.046,5.67,51.00,53.96,84.4,57.9,63.6,91.0,58.2,0,Inhibition (%) of lipid peroxidation ([8]; 3.16 μM): 12.51 ± 3.57%; TBARS ([8]; 3.16 μM): 4.665 ± 0.144 nmol/mg prot.; Inhibition (%) of lipid peroxidation ([8]; 5.62 μM): 31.7 ± 2.33%; TBARS ([8]; 5.62 μM): 3.651 ± 0.200 nmol/mg prot.; Inhibition (%) of lipid peroxidation ([8]; 10 μM): 49.46 ± 1.96%; TBARS ([8]; 10 μM): 2.693 ± 0.029 nmol/mg prot.; Inhibition (%) of lipid peroxidation ([8]; 56.23 μM): 58.14 ± 2.66%; TBARS ([8]; 56.23 μM): 2.225 ± 0.055 nmol/mg prot.; IC50 [8]: 10.3 ± 0.59 µM; IC50 [2]: 38.6 ± 8.1 µM
